What all share (type): in vivo
Data set [1] has as its system Beet Armyworm (Spodoptera exigua, LAPHEG). The experiment in a line: Bioassay on Beet Armyworm (BAW), 128-well diet tray assay. Conditions: 168 h, 50 μg/cm^2 on artificial diet, second instar larvae, 25° C., five to seven days, average of eight wells, read-out: BAW % Control (or Mortality) rating. Summed up:
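Second-instar larvae, one to five per well, placed on artificial diet surface-treated with 50 μg/cm^2 compound applied in 90:10 acetone-water and dried. Held 5–7 days at 25° C., 14:10 light-dark. Percent mortality recorded per well and averaged over eight wells.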

For data set [2], the system named is Cabbage Looper (Trichoplusia ni, TRIPNI). The experiment in a line: Bioassay on Cabbage Looper (CL), 128-well diet tray assay. Conditions: 168 h, 50 μg/cm^2 on artificial diet, second instar larvae, 25° C., five to seven days, average of eight wells, read-out: CL % Control (or Mortality) rating. In a few lines:
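Second-instar larvae, one to five per well, were placed on artificial diet surface-treated with 50 μg/cm^2 test molecule applied in 90:10 acetone-water and dried, eight wells per molecule. Trays were covered, vented and held at 25° C., 14:10 light-dark for five to seven days; percent mortality per well was averaged.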

The test system of data set [3] is Yellow Fever Mosquito (Aedes aegypti, AEDSAE). The following applies: about 1 day-old larvae, 96-well plate from 4000 ppm DMSO master, 3 days at room temperature. As to the method: Certain molecules disclosed in this document were tested against YFM using procedures described in the following paragraph. In the reporting of the results, the “GPA & YFM Rating Table” was used (See Table Section).
Master plates containing 400 μg of a molecule dissolved in 100 μL of dimethyl sulfoxide (DMSO) (equivalent to a 4000 ppm solution) are used. A master plate of assembled molecules contains 15 μL per well. To this plate, 135 μL of a 90:10 water/acetone mixture is added to each well. A robot is programmed to dispense 15 μL aspirations from the master plate into an empty 96-well shallow plate (“daughter” plate). There are 6 reps (“daughter” plates) created per master. The created “daughter” plates are then immediately infested with YFM larvae.
The day before plates are to be treated, mosquito eggs are placed in Millipore water containing liver powder to begin hatching (4 g. into 400 mL). After the “daughter” plates are created using the robot, they are infested with 220 μL of the liver powder/larval mosquito mixture (about 1 day-old larvae). After plates are infested with mosquito larvae, a non-evaporative lid is used to cover the plate to reduce drying. Plates are held at room temperature for 3 days prior to grading. After 3 days, each well is observed and scored based on mortality. The results are indicated in the table entitled “Table ABC: Biological Results” (See Table Section).

With `N#CC1(NC(=O)c2cc(NC(=O)[C@H]3[C@H](c4cc(Cl)cc(C(F)F)c4)C3(Cl)Cl)ccc2Cl)CC1` (relative stereo) [Molecule F85, trans-2-Chloro-N-(1-cyanocyclopropyl)-5-(2,2-dichloro-3-(3-chloro-5-(difluoro-methyl)phenyl)cyclopropane-1-carboxamido)benzamide], the mortality at 50 µg/cm2 in data set [1] and in data set [2] was 50 to 100% throughout. Besides, in data set [3], the “YFM % Control (or Mortality) rating” value is on record as “A (80-100)”.
As to `N#CC1(NC(=O)c2cc(NC(=O)[C@H]3[C@H](c4ccc(Cl)c(C(F)F)c4)C3(Cl)Cl)ccc2Cl)CC1` (relative stereo) [Molecule F86, trans-2-Chloro-N-(1-cyanocyclopropyl)-5-(2,2-dichloro-3-(4-chloro-3-(difluoro-methyl)phenyl)cyclopropane-1-carboxamido)benzamide], the mortality at 50 µg/cm2 in data set [1] and in data set [2] was 50 to 100% in each case. Besides, the “YFM % Control (or Mortality) rating” value in data set [3] is reported as “A (80-100)”.
For the molecule `N#CC1(NC(=O)c2cc(NC(=O)[C@H]3[C@H](c4cc(F)cc(C(F)F)c4)C3(Cl)Cl)ccc2Cl)CC1` (relative stereo) [Molecule F87, trans-2-Chloro-N-(1-cyanocyclopropyl)-5-(2,2-dichloro-3-(3-(difluoromethyl)-5-fluorophenyl)cyclopropane-1-carboxamido)benzamide], the mortality at 50 µg/cm2 in data set [1] and in data set [2] was 50 to 100% each time. For the same molecule, the “YFM % Control (or Mortality) rating” value in data set [3] is recorded as “A (80-100)”.
For the molecule `N#CC1(NC(=O)c2cc(NC(=O)[C@H]3[C@H](c4ccc(F)c(C(F)F)c4)C3(Cl)Cl)ccc2Cl)CC1` (relative stereo) [Molecule F88, trans-2-Chloro-N-(1-cyanocyclopropyl)-5-(2,2-dichloro-3-(3-(difluoromethyl)-4-fluorophenyl)cyclopropane-1-carboxamido)benzamide], the mortality at 50 µg/cm2 in data set [1] and in data set [2] was 50 to 100% each time. In addition, the “YFM % Control (or Mortality) rating” value in data set [3] is on record as “A (80-100)”.
As for `N#CC1(NC(=O)c2cc(NC(=O)[C@H]3[C@H](c4ccc(C(F)F)c(Cl)c4)C3(Cl)Cl)ccc2Cl)CC1` (relative stereo) [Molecule F89, trans-2-Chloro-N-(1-cyanocyclopropyl)-5-(2,2-dichloro-3-(3-chloro-4-(difluoromethyl)phenyl)cyclopropane-1-carboxamido)benzamide], the mortality at 50 µg/cm2 in data set [1] and in data set [2] was 50 to 100% in each case. For the same molecule, in data set [3], the “YFM % Control (or Mortality) rating” value is recorded as “A (80-100)”.
Turning to `N#CC1(NC(=O)c2cc(NC(=O)[C@H]3[C@H](c4ccc(C(F)F)c(F)c4)C3(Cl)Cl)ccc2Cl)CC1` (relative stereo) [Molecule F90, trans-2-Chloro-N-(1-cyanocyclopropyl)-5-(2,2-dichloro-3-(4-(difluoromethyl)-3-fluorophenyl)cyclopropane-1-carboxamido)benzamide], the mortality at 50 µg/cm2 in data set [1] and in data set [2] was 50 to 100% throughout. Further, the “YFM % Control (or Mortality) rating” value in data set [3] was “A (80-100)”.
Take `N#CC1(NC(=O)c2cc(NC(=O)[C@H]3[C@H](c4cccc(C(F)F)c4)C3(Cl)Cl)ccc2Cl)CC1` (relative stereo) [Molecule F91, trans-2-Chloro-N-(1-cyanocyclopropyl)-5-(2,2-dichloro-3-(3-(difluoromethyl)-phenyl)cyclopropane-1-carboxamido)benzamide]: the mortality at 50 µg/cm2 in data set [1] and in data set [2] was 50 to 100% throughout. Also, the “YFM % Control (or Mortality) rating” value in data set [3] is “A (80-100)”.
Consider `N#CC1(NC(=O)c2cc(NC(=O)[C@H]3[C@H](c4ccc(C(F)F)cc4)C3(Cl)Cl)ccc2Cl)CC1` (relative stereo) [Molecule F92, trans-2-Chloro-N-(1-cyanocyclopropyl)-5-(2,2-dichloro-3-(4-(difluoromethyl)-phenyl)cyclopropane-1-carboxamido)benzamide], for which the mortality at 50 µg/cm2 in data set [1] and in data set [2] was 50 to 100% each time. Also, the “YFM % Control (or Mortality) rating” value in data set [3] was “A (80-100)”.
`N#CC1(NC(=O)c2cc(NC(=O)[C@H]3[C@H](c4cc(F)cc(Cl)c4)C3(Cl)Cl)ccc2Cl)CC1` (relative stereo) [PF1, trans-2-Chloro-N-(1-cyanocyclopropyl)-5-(2,2-dichloro-3-(3-chloro-5-fluorophenyl)cyclopropane-1-carboxamido)benzamide]: the mortality at 50 µg/cm2 in data set [1] and in data set [2] was 50 to 100% throughout. Further, the “YFM % Control (or Mortality) rating” value in data set [3] was “A (80-100)”.
`N#CC1(NC(=O)c2cc(NC(=O)[C@H]3[C@H](c4cc(Cl)cc(Br)c4)C3(Cl)Cl)ccc2Cl)CC1` (relative stereo) [PF4, trans-5-(3-(3-Bromo-5-chlorophenyl)-2,2-dichlorocyclopropane-1-carboxamido)-2-chloro-N-(1-cyanocyclopropyl)benzamide]: the mortality at 50 µg/cm2 in data set [1] and in data set [2] was 50 to 100% each time. Moreover, the “YFM % Control (or Mortality) rating” value in data set [3] is “A (80-100)”.
Regarding `O=C(NC1CC(F)(F)C1)c1cc(NC(=O)[C@H]2[C@H](c3cc(F)cc(Cl)c3)C2(Cl)Cl)ccc1Cl` (relative stereo) [PF5, trans-2-Chloro-5-(2,2-dichloro-3-(3-chloro-5-fluorophenyl)cyclopropane-1-carboxamido)-N-(3,3-difluorocyclobutyl)benzamide], the mortality at 50 µg/cm2 in data set [1] and in data set [2] was 50 to 100% in each case. Moreover, the “YFM % Control (or Mortality) rating” value in data set [3] is given as “B (More than 0-Less than 80)”.
For the molecule `O=C(NC1CC(F)(F)C1)c1cc(NC(=O)[C@H]2[C@H](c3ccc(Cl)c(F)c3)C2(Cl)Cl)ccc1Cl` (relative stereo) [PF6, trans-2-Chloro-5-(2,2-dichloro-3-(4-chloro-3-fluorophenyl)cyclopropane-1-carboxamido)-N-(3,3-difluorocyclobutyl)benzamide], the mortality at 50 µg/cm2 in data set [1] and in data set [2] was 50 to 100% in each case. Also, in data set [3], the “YFM % Control (or Mortality) rating” value is recorded as “D (No activity noticed in this bioassay)”.
For the molecule `O=C(NC1CN(C(=O)C2CC2)C1)c1cc(NC(=O)[C@H]2[C@H](c3cc(Cl)cc(Cl)c3)C2(Cl)Cl)ccc1Cl` (relative stereo) [PF9, trans-2-chloro-N-(1-(cyclopropanecarbonyl)-azetidin-3-yl)-5-(2,2-dichloro-3-(3,5-dichlorophenyl)cyclopropane-1-carboxamido)benzamide], the mortality at 50 µg/cm2 in data set [1] and in data set [2] was 50 to 100% each time. Further, the “YFM % Control (or Mortality) rating” value in data set [3] is “B (More than 0-Less than 80)”.
Regarding `O=C(NC1CN(C(=O)CC(F)(F)F)C1)c1cc(NC(=O)[C@H]2[C@H](c3cc(Cl)cc(Cl)c3)C2(Cl)Cl)ccc1Cl` (relative stereo) [PF12, trans-2-Chloro-5-(2,2-dichloro-3-(3,5-dichlorophenyl)cyclopropane-1-carboxamido)-N-(1-(3,3,3-trifluoropropanoyl)azetidin-3-yl)benzamide], the mortality at 50 µg/cm2 in data set [1] and in data set [2] was 50 to 100% in each case. Besides, in data set [3], the “YFM % Control (or Mortality) rating” value is recorded as “A (80-100)”.
Consider `COCC(=O)N1CC(NC(=O)c2cc(NC(=O)[C@H]3[C@H](c4cc(Cl)cc(Cl)c4)C3(Cl)Cl)ccc2Cl)C1` (relative stereo) [PF14, trans-2-Chloro-5-(2,2-dichloro-3-(3,5-dichlorophenyl)cyclopropane-1-carboxamido)-N-(1-(2-methoxyacetyl)azetidin-3-yl)benzamide], for which the mortality at 50 µg/cm2 in data set [1] and in data set [2] was 50 to 100% in each case. In addition, in data set [3], the “YFM % Control (or Mortality) rating” value is on record as “A (80-100)”.
Regarding `O=C(NC1CC[S+]([O-])C1)c1cc(NC(=O)[C@H]2[C@H](c3cc(Cl)c(Cl)c(Cl)c3)C2(Cl)Cl)ccc1Cl` (relative stereo) [PF18, trans-2-chloro-5-(2,2-dichloro-3-(3,4,5-trichloro-phenyl)cyclopropane-1-carboxamido)-N-(1-oxidotetrahydrothiophen-3-yl)-benzamide], the mortality at 50 µg/cm2 in data set [1] and in data set [2] was 50 to 100% in each case. Moreover, the “YFM % Control (or Mortality) rating” value in data set [3] is “A (80-100)”.
With `O=C(NC1CCS(=O)(=O)C1)c1cc(NC(=O)[C@H]2[C@H](c3cc(Cl)c(Cl)c(Cl)c3)C2(Cl)Cl)ccc1Cl` (relative stereo) [PF19, trans-2-Chloro-5-(2,2-dichloro-3-(3,4,5-trichlorophenyl)cyclopropane-1-carboxamido)-N-(1,1-dioxidotetrahydrothiophen-3-yl)benzamide], the mortality at 50 µg/cm2 in data set [1] and in data set [2] was 50 to 100% in each case. Further, in data set [3], the “YFM % Control (or Mortality) rating” value was “B (More than 0-Less than 80)”.
